Test results published in patent publication US12440443B2, “Nano-emulsion of CBFβ-RUNX1 inhibitor for ocular drug deliver” (Massachusetts Eye and Ear Infirmary, priority 2017, dated 2025).

Experiment: Solubility behaviour of Ro5-3335 in aqueous solution
Format: physicochemical
Source text: The invention provides a solution to many problems and/or drawbacks of earlier ocular formulations and features a nano-emulsion composition, e.g., a nano-emulsion comprising a core binding factor β (CBFβ)-Runt-Related Transcription Factor 1 (RUNX1) (CBFβ-RUNX1) inhibitor. […] With our emulsion, we have devised a composition to encapsulate the drug in a nanonsphere, which allows for suspension in an aqueous solution, and increases availability of the drug, and also improves penetration of ocular tissues.

O=C1CN=C(c2ccc[nH]2)c2cc(Cl)ccc2N1 [Ro5-3335, 7-chloro-1,3-dihydro-5-(1h-pyrrol-2y-yl)-2H-1,4-benzodiazepin-2-one]
solubility in aqueous solution: insoluble in aqueous solution
